Experimental data from US11091478B2 (Fochon Pharmaceuticals, Ltd., priority 2017, dated 2021).
pIC50: −log10 of the molar value.

Tests used:
DOHH2 cells = assay: Cell proliferation assay (MTS), DOHH2 cells, 120 h; type: cell-based; details: Homo sapiens, DOHH-2, 120 h
Procedure, shortened: (§1)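 Cells in RPMI-1640 with 10% FBS were seeded at 5000/well, left overnight at 37° C., 5% CO2, then exposed to compound at 10000 down to 1.5 nM (nine concentrations) for 72 h (RS4;11) or 120 h (DOHH2). Viability was read by MTS, 2 h, absorbance at 490/650 nm; IC50 calculated.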

RS4;11 cells = assay: Cell proliferation assay (MTS), RS4;11 cells, 72 h; type: cell-based; details: Homo sapiens, RS4-11, 72 h
Procedure, shortened: as §1

| SMILES | pIC50 (RS4;11 cells) | pIC50 (DOHH2 cells) |
| --- | --- | --- |
| CC1(C)CCC(CN2CCN(c3ccc(C(=O)NS(=O)(=O)c4cc5c(c([N+](=O)[O-])c4)N[C@H](CCN=S4(=O)CCCC4)CO5)c(Oc4cnc5[nH]ccc5c4)c3)CC2)=C(c2ccc(Cl)cc2)C1 [Example 2-73, (R)-2-((1H-pyrrolo[2,3-b]pyridin-5-yl)oxy)-4-(4-((4′-chloro-5,5-dimethyl-3,4,5,6-tetra-hydro-[1,1′-biphenyl]-2-yl)methyl)piperazin-1-yl)-N-((5-nitro-3-(2-((1-oxidotetrahydro-1λ^6-thiophen-1-ylidene)amino)ethyl)-3,4-dihydro-2H-benzo[b][1,4]oxazin-7-yl)sulfonyl)benzamide] | 7.10 | 7.16 |
| CC1(C)CCC(CN2CCN(c3ccc(C(=O)NS(=O)(=O)c4cc5c(c([N+](=O)[O-])c4)N[C@H](CCN=S4(=O)CCOCC4)CO5)c(Oc4cnc5[nH]ccc5c4)c3)CC2)=C(c2ccc(Cl)cc2)C1 [Example 2-74, (R)-2-((1H-pyrrolo[2,3-b]pyridin-5-yl)oxy)-4-(4-((4′-chloro-5,5-dimethyl-3,4,5,6-tetra-hydro-[1,1′-biphenyl]-2-yl)methyl)piperazin-1-yl)-N-((5-nitro-3-(2-((4-oxido-1,4λ^6-ox-athian-4-lidene)amino)ethyl)-3,4-dihydro-2H-benzo[b][1,4]oxazin-7-yl)sulfonyl)ben-zamide] | 7.19 | 6.97 |
| CC1(C)CCC(CN2CCN(c3ccc(C(=O)NS(=O)(=O)c4cc5c(c([N+](=O)[O-])c4)N[C@@H](CN=S4(=O)CCOCC4)CO5)c(Oc4cnc5[nH]ccc5c4)c3)CC2)=C(c2ccc(Cl)cc2)C1 [Example 2-77, (S)-2-((1H-pyrrolo[2,3-b]pyridin-5-yl)oxy)-4-(4-((4′-chloro-5,5-dimethyl-3,4,5,6-tetra-hydro-[1,1′-biphenyl]-2-yl)methyl)piperazin-1-yl)-N-((5-nitro-3-(((4-oxido-1,4λ^6-oxa-thian-4-ylidene)amino)methyl)-3,4-dihydro-2H-benzo[b][1,4]oxazin-7-yl)sulfonyl)ben-zamide] | 7.30 | 6.22 |
| CC1(C)CCC(CN2CCN(c3ccc(C(=O)NS(=O)(=O)c4cc5c(c([N+](=O)[O-])c4)N[C@@H](CCN=S4(=O)CCOCC4)CO5)c(Oc4cnc5[nH]ccc5c4)c3)CC2)=C(c2ccc(Cl)cc2)C1 [Example 2-78, (S)-2-((1H-pyrrolo[2,3-b]pyridin-5-yl)oxy)-4-(4-((4′-chloro-5,5-dimethyl-3,4,5,6-tetra-hydro-[1,1′-biphenyl]-2-yl)methyl)piperazin-1-yl)-N-((5-nitro-3-(2-((4-oxido-1,4λ^6-ox-athian-4-ylidene)amino)ethyl)-3,4-dihydro-2H-benzo[b][1,4]oxazin-7-yl)sulfonyl)ben-zamide] | 8.22 | 7.82 |
| C[C@H]1CN(C[C@@H]2COc3cc(S(=O)(=O)NC(=O)c4ccc(N5CCN(CC6=C(c7ccc(Cl)cc7)CC(C)(C)CC6)CC5)cc4Oc4cnc5[nH]ccc5c4)cc([N+](=O)[O-])c3N2)CCO1 [Example 2-79, 2-((1H-pyrrolo[2,3-b]pyridin-5-yl)oxy)-4-(4-((4′-chloro-5,5-dimethyl-3,4,5,6-tetrahydro-[1,1′-biphenyl]-2-yl)methyl)piperazin-1-yl)-N-(((R)-3-(((S)-2-methylmorpholino)methyl)-5-nitro-3,4-dihydro-2H-benzo[b][1,4]oxazin-7-yl)sulfonyl)benzamide] | 8.15 | 7.26 |
| C[C@H]1COCCN1C[C@@H]1COc2cc(S(=O)(=O)NC(=O)c3ccc(N4CCN(CC5=C(c6ccc(Cl)cc6)CC(C)(C)CC5)CC4)cc3Oc3cnc4[nH]ccc4c3)cc([N+](=O)[O-])c2N1 [Example 2-80, 2-((1H-pyrrolo[2,3-b]pyridin-5-yl)oxy)-4-(4-((4′-chloro-5,5-dimethyl-3,4,5,6-tetrahydro-[1,1′-biphenyl]-2-yl)methyl)piperazin-1-yl)-N-(((R)-3-(((S)-3-methylmorpholino)meth-yl)-5-nitro-3,4-dihydro-2H-benzo[b][1,4]oxazin-7-yl)sulfonyl)benzamide] | 8.15 | 7.31 |
| CC1(C)CCC(CN2CCN(c3ccc(C(=O)NS(=O)(=O)c4cc5c(c([N+](=O)[O-])c4)N[C@H](CN4CCCCC4)CO5)c(Oc4cnc5[nH]ccc5c4)c3)CC2)=C(c2ccc(Cl)cc2)C1 [Example 2-84, (R)-2-((1H-pyrrolo[2,3-b]pyridin-5-yl)oxy)-4-(4-((4′-chloro-5,5-dimethyl-3,4,5,6-tetra-hydro-[1,1′-biphenyl]-2-yl)methyl)piperazin-1-yl)-N-((5-nitro-3-(piperidin-1-ylmethyl)-3,4-dihydro-2H-benzo[b][1,4]oxazin-7-yl)sulfonyl)benzamide] | 7.59 | 7.09 |
| CC1(C)CCC(CN2CCN(c3ccc(C(=O)NS(=O)(=O)c4cc5c(c([N+](=O)[O-])c4)N[C@@H](CN4C[C@@H]6C[C@H]4CO6)CO5)c(Oc4cnc5[nH]ccc5c4)c3)CC2)=C(c2ccc(Cl)cc2)C1 [Example 2-87, 2-((1H-pyrrolo[2,3-b]pyridin-5-yl)oxy)-N-(((S)-3-(((1S,4S)-2-oxa-5-azabicyclo[2.2.1]heptan-5-yl)methyl)-5-nitro-3,4-dihydro-2H-benzo[b][1,4]oxazin-7-yl)sulfonyl)-4-(4-((4′-chloro-5,5-dimethyl-3,4,5,6-tetrahydro-[1,1′-biphenyl]-2-yl)methyl)piperazin-1-yl) benzamide] | 8.15 | 7.59 |
| CC1(C)CCC(CN2CCN(c3ccc(C(=O)NS(=O)(=O)c4cc5c(c([N+](=O)[O-])c4)N[C@@H](CN4CCCCC4)CO5)c(Oc4cnc5[nH]ccc5c4)c3)CC2)=C(c2ccc(Cl)cc2)C1 [Example 2-89, (S)-2-((1H-pyrrolo[2,3-b]pyridin-5-yl)oxy)-4-(4-((4′-chloro-5,5-dimethyl-3,4,5,6-tetra-hydro-[1,1′-biphenyl]-2-yl)methyl)piperazin-1-yl)-N-((5-nitro-3-(piperidin-1-ylmethyl)-3,4-dihydro-2H-benzo[b][1,4]oxazin-7-yl)sulfonyl)benzamide] | 7.30 | 7.26 |

The remaining molecules from weak to strong by pIC50 (RS4;11 cells), led by results:

| pIC50 (RS4;11 cells) | SMILES | pIC50 (DOHH2 cells) |
| --- | --- | --- |
| 8.22 | CC1(C)CCC(CN2CCN(c3ccc(C(=O)NS(=O)(=O)c4cc5c(c([N+](=O)[O-])c4)N[C@H](CN=S4(=O)CCOCC4)CO5)c(Oc4cnc5[nH]ccc5c4)c3)CC2)=C(c2ccc(Cl)cc2)C1 [Example 2-72, (R)-2-((1H-pyrrolo[2,3-b]pyridin-5-yl)oxy)-4-(4-((4′-chloro-5,5-dimethyl-3,4,5,6-tetra-hydro-[1,1′-biphenyl]-2-yl)methyl)piperazin-1-yl)-N-((5-nitro-3-(((4-oxido-1,4λ^6-oxa-thian-4-ylidene)amino)methyl)-3,4-dihydro-2H-benzo[b][1,4]oxazin-7-yl)sulfonyl)ben-zamide] | 7.62 |
| 8.52 | C[C@@H]1COCCN1C[C@@H]1COc2cc(S(=O)(=O)NC(=O)c3ccc(N4CCN(CC5=C(c6ccc(Cl)cc6)CC(C)(C)CC5)CC4)cc3Oc3cnc4[nH]ccc4c3)cc([N+](=O)[O-])c2N1 [Example 2-81, 2-((1H-pyrrolo[2,3-b]pyridin-5-yl)oxy)-4-(4-((4′-chloro-5,5-dimethyl-3,4,5,6-tetra-hydro-[1,1′-biphenyl]-2-yl)methyl)piperazin-1-yl)-N-(((R)-3-(((R)-3-methylmorpholino)meth-yl)-5-nitro-3,4-dihydro-2H-benzo[b][1,4]oxazin-7-yl)sulfonyl)benzamide] | 7.85 |
| 8.70 | CC1(C)CCC(CN2CCN(c3ccc(C(=O)NS(=O)(=O)c4cc5c(c([N+](=O)[O-])c4)N[C@@H](CN4C[C@H]6C[C@@H]4CO6)CO5)c(Oc4cnc5[nH]ccc5c4)c3)CC2)=C(c2ccc(Cl)cc2)C1 [Example 2-88, 2-((1H-pyrrolo[2,3-b]pyridin-5-yl)oxy)-N-(((S)-3-(((1R,4R)-2-oxa-5-azabicyclo[2.2.1]heptan-5-yl)methyl)-5-nitro-3,4-dihydro-2H-benzo[b][1,4]oxazin-7-yl)sulfonyl)-4-(4-((4′-chloro-5,5-dimethyl-3,4,5,6-tetrahydro-[1,1′-biphenyl]-2-yl)methyl)piperazin-1-yl) benzamide] | 7.85 |
| 9.00 | CC1(C)CCC(CN2CCN(c3ccc(C(=O)NS(=O)(=O)c4cc5c(c([N+](=O)[O-])c4)N[C@@H](CN=S(C)(C)=O)CO5)c(Oc4cnc5[nH]ccc5c4)c3)CC2)=C(c2ccc(Cl)cc2)C1 [Example 2-75, (S)-2-((1H-pyrrolo[2,3-b]pyridin-5-yl)oxy)-4-(4-((4′-chloro-5,5-dimethyl-3,4,5,6-tetra-hydro-[1,1′-biphenyl]-2-yl)methyl)piperazin-1-yl)-N-((3-(((dimethyl(oxo)-λ^6-sulfanyl-idene)amino)methyl)-5-nitro-3,4-dihydro-2H-benzo[b][1,4]oxazin-7-yl)sulfonyl)benza-mide] | 7.19 |
| 9.00 | CC1(C)CCC(CN2CCN(c3ccc(C(=O)NS(=O)(=O)c4cc5c(c([N+](=O)[O-])c4)N[C@H](CN4C[C@@H]6C[C@H]4CO6)CO5)c(Oc4cnc5[nH]ccc5c4)c3)CC2)=C(c2ccc(Cl)cc2)C1 [Example 2-82, 2-((1H-pyrrolo[2,3-b]pyridin-5-yl)oxy)-N-(((R)-3-(((1S,4S)-2-oxa-5-azabicyclo[2.2.1]heptan-5-yl)methyl)-5-nitro-3,4-dihydro-2H-benzo[b][1,4]oxazin-7-yl)sulfonyl)-4-(4-((4′-chloro-5,5-dimethyl-3,4,5,6-tetrahydro-[1,1′-biphenyl]-2-yl)methyl)piperazin-1-yl) benzamide] | 8.05 |
| 9.00 | CC1(C)CCC(CN2CCN(c3ccc(C(=O)NS(=O)(=O)c4cc5c(c([N+](=O)[O-])c4)N[C@H](CN4C[C@H]6C[C@@H]4CO6)CO5)c(Oc4cnc5[nH]ccc5c4)c3)CC2)=C(c2ccc(Cl)cc2)C1 [Example 2-83, 2-((1H-pyrrolo[2,3-b]pyridin-5-yl)oxy)-N-(((R)-3-(((1R,4R)-2-oxa-5-azabicyclo[2.2.1]heptan-5-yl)methyl)-5-nitro-3,4-dihydro-2H-benzo[b][1,4]oxazin-7-yl)sulfonyl)-4-(4-((4′-chloro-5,5-dimethyl-3,4,5,6-tetrahydro-[1,1′-biphenyl]-2-yl)methyl)piperazin-1-yl) benzamide] | 7.89 |
